For this experiment, the target named is T1, wild-type hTRPM3_1325 (Homo sapiens, UniProt Q9HCF6).
T1 construct: expressed in transfected cells; host or cells: Xenopus laevis oocytes (cRNA injection)
T1 sequence (Q9HCF6 1-1325 isoform Q9HCF6-10): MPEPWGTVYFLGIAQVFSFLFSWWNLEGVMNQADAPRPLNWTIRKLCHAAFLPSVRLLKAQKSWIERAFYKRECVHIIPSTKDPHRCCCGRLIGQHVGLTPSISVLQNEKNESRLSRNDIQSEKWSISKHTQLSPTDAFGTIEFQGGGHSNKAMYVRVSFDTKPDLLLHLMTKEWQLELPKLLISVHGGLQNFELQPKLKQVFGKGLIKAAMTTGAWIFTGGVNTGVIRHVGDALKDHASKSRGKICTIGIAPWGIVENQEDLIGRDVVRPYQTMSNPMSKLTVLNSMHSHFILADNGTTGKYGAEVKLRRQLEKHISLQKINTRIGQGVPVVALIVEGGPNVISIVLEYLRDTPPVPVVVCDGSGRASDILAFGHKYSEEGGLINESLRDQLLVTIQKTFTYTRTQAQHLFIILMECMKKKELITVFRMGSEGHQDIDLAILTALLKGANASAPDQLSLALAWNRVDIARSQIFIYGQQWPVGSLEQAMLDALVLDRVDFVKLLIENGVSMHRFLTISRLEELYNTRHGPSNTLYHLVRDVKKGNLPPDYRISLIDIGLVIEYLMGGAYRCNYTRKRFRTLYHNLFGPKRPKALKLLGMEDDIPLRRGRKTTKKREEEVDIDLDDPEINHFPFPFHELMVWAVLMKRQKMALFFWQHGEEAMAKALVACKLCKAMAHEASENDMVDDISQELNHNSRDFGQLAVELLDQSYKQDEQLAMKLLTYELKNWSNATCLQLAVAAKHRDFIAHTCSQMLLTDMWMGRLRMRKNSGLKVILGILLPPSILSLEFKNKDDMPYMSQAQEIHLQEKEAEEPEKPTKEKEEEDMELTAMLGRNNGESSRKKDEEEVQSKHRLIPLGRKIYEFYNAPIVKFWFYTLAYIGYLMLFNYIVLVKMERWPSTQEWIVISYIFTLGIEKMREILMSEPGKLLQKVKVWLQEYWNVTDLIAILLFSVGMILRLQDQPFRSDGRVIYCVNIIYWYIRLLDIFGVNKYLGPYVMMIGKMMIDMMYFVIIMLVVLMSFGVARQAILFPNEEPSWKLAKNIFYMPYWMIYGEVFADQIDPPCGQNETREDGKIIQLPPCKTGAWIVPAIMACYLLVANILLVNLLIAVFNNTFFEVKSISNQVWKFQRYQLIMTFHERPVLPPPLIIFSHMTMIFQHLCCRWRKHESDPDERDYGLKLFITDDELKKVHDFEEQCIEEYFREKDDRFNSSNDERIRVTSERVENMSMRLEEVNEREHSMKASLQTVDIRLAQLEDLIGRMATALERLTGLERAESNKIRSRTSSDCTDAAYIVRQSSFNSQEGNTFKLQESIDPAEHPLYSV
Kind of experiment: Two electrode voltage clamp in Xenopus oocytes, wild type channel. It is filed as cell-based. Particulars: wild type TRPM3, 50 μM, room temperature (20–22°C). The protocol:
Xenopus laevis oocytes were prepared as described earlier ([Badheka et al., 2015]). All animal procedures were approved by the Institutional Animal Care and Use Committee at Rutgers New Jersey Medical School. In brief, frogs were anesthetized in 0.25% ethyl 3-aminobenzoate methanesulfonate solution (MS222; Sigma-Aldrich); bags of ovaries were removed surgically from the anesthetized frogs. Individual oocytes were obtained by overnight digestion at 16°C in 0.2–0.3 mg/ml type 1A collagenase (Sigma-Aldrich), dissolved in a solution containing 82.5 mM NaCl, 2 mM KCl, 1 mM MgCl2, and […] HEPES, pH 7.4 (OR2 solution). The next day the collagenase containing solution was discarded and the oocytes were washed multiple times with OR2 solution. […]
Two electrode voltage clamp experiments were performed as described ([Badheka et al., 2015]). In brief, oocytes were placed in extracellular solution (97 mM NaCl, 2 mM KCl, 1 mM MgCl2, and […] HEPES, pH 7.4), and currents were recorded with thin-wall inner filament– containing glass pipettes (World Precision Instruments) filled with 3 M KCl in 1% agarose. Currents were measured with a ramp protocol from −100 to 100 mV once every 0.5 s with a GeneClamp 500B amplifier and analyzed with the pClamp 9.0 software (Molecular Devices). […]

Each structure is given as a SMILES string.

Turning to `CCC1(c2ccccc2)C(=O)NCNC1=O` [primidone], the “Inhibition of basal current” value was “small reduction”.

The values above are taken from PMC7255801, “Disease-associated mutations in the human TRPM3 render the channel overactive via two distinct mechanisms” (eLife, 2020).
